{"source": "patent US8455442B2", "about": "“Peptides having binding affinity to an antibody which recognizes an epitope on an α1 loop 2 or β2 loop 1 of an adrenoreceptor” (MDC Max-Delbruck-Centrum fur Molekulare Medizin Berlin-Buch, priority 2008, dated 2013)", "key": {"α1 adrenergic receptor": {"system": "α1 adrenergic receptor", "test": "Antagonist block of patient-antibody stimulation of the beating rate of cultured neonatal rat cardiomyocytes", "assay_type": "cell-based", "conditions": "FIG. 1; prazosin given in addition to ICI 118,551; patient immunoglobulins on rat cardiomyocytes", "text": "(§1) Preparation of the immunoglobulin fraction.\n(§2) The buffer was changed five times during dialysis."}, "[1]": {"system": "antibodies from patients with Morbus Alzheimer directed to the α1A Adrenoceptor", "test": "Peptide neutralization of the antibody-mediated increase of the beating rate (neonatal rat cardiomyocyte bioassay)", "assay_type": "cell-based, human", "conditions": "FIG. 6; overlapping peptides of the second extracellular loop of the α1A Adrenoceptor co-incubated with patient immunoglobulins (n=5)", "procedure": "as §1, §2\n(§3) After the dialysis, the IgG fractions feature a concentration of 10-15 mg/ml, a maximum of 10 μg/ml of which are specific receptor antibodies. 50 μl of this IgG solution are pre-incubated with the peptides with the following concentration of peptides: 5 μl of a buffered solution of 100 μg/ml per 50 μl IgG solution. This mixture is pre-incubated at room temperature for 30 minutes and subsequently filled into the cell culture vials, after the former nutrient solution has been removed by pipet. The amount of the medium is 2 ml. The final concentration therefore is of […] for the IgG and 0.5 μg for the peptides. If the molecular weight of the peptide (10 mer) is set with 1 KD and that of the IgG is set with 150 KD, there is an excess of […].\n(§4) For the neutralization experiments, synthetic peptides corresponding to the sequence of the three extracellular loops of the human β2 AR or α1A-AR was added in excess (0.5 μg in 50 μl) to 50 μl of the immunoglobulin fraction. The mixtures were shaken and incubated at room temperature for 1 h. The 100-μl samples were then added to neonatal rat heart muscle cells cultured in 2 ml medium to a final dilution of 1:40. The beating rate was counted for 15 s, about 60 min after the addition of the peptide/immunoglobulin mixture. […]"}, "[2]": {"system": "antibodies from patients with Morbus Alzheimer directed to the β2 Adrenoceptor", "test": "Peptide neutralization of the antibody-mediated increase of the beating rate (neonatal rat cardiomyocyte bioassay)", "assay_type": "cell-based, human", "conditions": "FIG. 3; overlapping epitope peptides of loop 1 of the β2-AR co-incubated with patient immunoglobulins (n=6)", "procedure": "as §1, §2, §3, §4"}}}
{"molecule": "COc1cc2nc(N3CCN(C(=O)c4ccco4)CC3)nc(N)c2cc1OC", "note": "[prazosin]", "values": [{"measurement": "inhibition of cellular activity of contraction", "setting": "α1 adrenergic receptor", "value": "more effective inhibition"}]}
{"molecule": "APEDET [peptide embedded in the second extracellular loop of the α1A Adrenoceptor]", "values": [{"measurement": "neutralisation of the cellular activity of the immunoglobulins", "setting": "[1]", "value": "neutralises"}]}
{"molecule": "FGNFWCE", "values": [{"measurement": "neutralisation of antibody mediated increase of the beating rate", "setting": "[2]", "value": "neutralisation"}]}
